{
  "source": "patent US9878054B2",
  "about": "“Polypeptide and lipophilic moiety conjugate compositions, formulations, and uses related thereto” (Tufts Medical Center, Inc., priority 2012, dated 2018)",
  "key": {"[1]": {"system": "human platelets (thrombin)", "test": "Thrombin-induced aggregation of human platelets", "type": "cell-based", "conditions": "3 μM compound", "procedure": "A, Depiction of the mechanism of action of the cell-penetrating PZ-128 pepducin compound targeting the third intracellular loop (red) of PAR1. B, The NMR structure of PZ-128 was determined by simulated annealing methods using 210 distance restraints and included restraints to the proximal 3 hydrocarbons of the lipid. […] D, PZ-128 inhibits PAR1-dependent platelet aggregation. Gel filtered human platelets were treated with various concentrations of PZ-128 and then challenged with the PAR1 agonist SFLLRN (2.5 μM), 20 μM ADP, 200 μM AYPGKF or 1 mg/ml Ristocetin. E, Human platelets were treated with 3 μM PZ-128, 3 μM RWJ-56110, or 5% dextrose vehicle before the addition of various concentrations of thrombin (n=3-5).\nPZ-128 also markedly right-shifted thrombin-induced aggregation by 5-fold. By comparison, the small molecule RWJ-56110 which antagonizes PAR1 at the extracellular ligand-binding site gave a 2-fold right shift in the thrombin activation curve of human platelets.\nWhole blood from healthy donors was collected into a 30 ml syringe containing sodium citrate (0.4% vol/vol final). Platelets were isolated from platelet rich plasma (PRP) using Sepharose 2B columns in modified PIPES buffer."}, "human whole blood": {"system": "human whole blood", "test": "Activated clotting time (ACT) of blood from PCI patients", "conditions": "iv 0.75 mg/kg bolus then 1.75 mg/kg/hr, 30 min", "procedure": "PZ-128 (χ) was spiked at various concentrations (0-150 μM) into fresh whole blood obtained from patients just prior to PCI. By comparison, blood was obtained at the 30 min time point from PCI patients (n=22) after a weight-adjusted dosage of bivalirudin (•) administered intravenously as a 0.75 mg/kg bolus followed by continuous infusion of 1.75 mg/kg/hr during the procedure. ACT assays were performed immediately using a Hemochron 801 with FTCA510-4 ACT cartridges containing silica, phospholipids, and diatomaceous earth (kaolin). The open circle represents the mean (±SD) ACT and mean bivalirudin concentration at the 30 min time point in the 22 PCI patients.\nThe effects of PZ-128 micelles were measured on activated clotting time (ACT) in human blood samples freshly obtained from adult patients undergoing PCI. At concentrations of PZ-128 up to 150 μM, there were no effects on ACT in the human PCI blood samples (FIG. 5).\nAdult outpatients with angina referred for coronary angiography or PCI were enrolled in the Tufts Medical Center Adult Cardiac Catheterization Laboratory. Blood was collected prior to PCI or angiography and PZ-128 micelles were spiked into 1 ml samples of whole blood at a range of final concentrations (0-150 μmol/L). ACT was measured immediately in duplicate. […] Bivalirudin concentrations in plasma were measured by LC/MS/MS."}, "[2]": {"system": "guinea pig carotid artery thrombosis", "test": "Guinea pig carotid artery FeCl3 injury arterial thrombosis model", "type": "in vivo", "conditions": "sub-therapeutic dose alone (PZ-128 0.05 mg/kg; clopidogrel 1 mg/kg PO)", "procedure": "A carotid artery FeCl3 injury model was used in guinea pigs to assess the anti-thrombotic efficacy of PZ-128 micelles within 15 min of initiation of drug administration. FeCl3 denudes the artery and exposes type I collagen and other subendothelial matrix proteins to initiate platelet-dependent thrombosis. Guinea pigs received 10 min intravenous infusions of PZ-128 micelles, 5 min prior to carotid artery injury. […] Mean occlusion times increased by 4-fold to 40 min at doses above 0.05 mg/kg PZ-128.\nMale Hartley guinea pigs (150˜220 g) were purchased from Charles River Laboratories. A 0.61 mm-diameter catheter was inserted into the left jugular vein of anesthetized animals for administration of infusions of 5% USP dextrose vehicle or PZ-128 micelles. A 0.5 V-Doppler probe (Transonic Systems, Ithaca, N.Y.) was placed around the right carotid artery to record blood flow. A range of doses of PZ-128 micelles from 0.05 to 1.6 mg/kg in 0.9 ml volumes were delivered at an injection rate of 0.09 ml/min by a Harvard syringe pump. Five minutes after the infusion ended, arterial thrombosis was induced by placing a 5×5 mm^2 piece of filter paper soaked in freshly made 20% FeCl3 solution on the right carotid artery 5 mm distal to the probe for 20 minutes. […] To examine possible synergistic effects of PZ-128 micelles and P2Y12-ADP receptor inhibition, 1 mg/kg clopidogrel was administered by oral gavage 4 hours prior to FeCl3 injury. In these synergy experiments, the maximum endpoint was set at 90 minutes for occlusion time."}, "[3]": {"conditions": "cited from earlier work"}, "PAR1": {"system": "PAR1", "conditions": "read-out: EC50, activation of guinea pig platelets; PRP from vehicle-treated guinea pigs"}},
  "data": [
    {"molecule": "NCC[C@H](NC(=O)[C@H](Cc1ccc(F)c(F)c1)NC(=O)Nc1ccc2c(CN3CCCC3)cn(Cc3c(Cl)cccc3Cl)c2c1)C(=O)NCc1ccccc1", "note": "[RWJ-56110, reference compound]", "values": [
      {"measurement": "Right shift of thrombin-induced aggregation curve", "setting": "[1]", "value": 2, "unit": "fold"}
    ]},
    {"molecule": "CC[C@H](C)[C@H](NC(=O)[C@H](CCC(=O)O)NC(=O)[C@H](CCC(=O)O)NC(=O)[C@H](Cc1ccccc1)NC(=O)[C@H](CC(=O)O)NC(=O)CNC(=O)[C@H](CC(N)=O)NC(=O)CNC(=O)CNC(=O)CNC(=O)CNC(=O)[C@@H]1CCCN1C(=O)[C@H](CCCNC(=N)N)NC(=O)[C@@H]1CCCN1C(=O)[C@H](N)Cc1ccccc1)C(=O)N1CCC[C@H]1C(=O)N[C@@H](CCC(=O)O)C(=O)N[C@@H](CCC(=O)O)C(=O)N[C@@H](Cc1ccc(O)cc1)C(=O)N[C@@H](CC(C)C)C(=O)O", "note": "[bivalirudin]", "values": [
      {"measurement": "Activated clotting time (ACT)", "setting": "human whole blood", "value": "highly elevated"}
    ]},
    {"molecule": "COC(=O)[C@H](c1ccccc1Cl)N1CCc2sccc2C1", "note": "[clopidogrel, reference compound]", "values": [
      {"measurement": "Protection against arterial occlusion when used alone", "setting": "[2]", "value": "non-significant protection"}
    ]},
    {"molecule": "CCOC(=O)N[C@@H]1CC[C@@H]2[C@@H](C1)C[C@H]1C(=O)O[C@H](C)[C@H]1[C@H]2/C=C/c1ccc(-c2cccc(F)c2)cn1", "note": "[vorapaxar]", "values": [
      {"measurement": "Pharmacodynamic (PD) half-life", "setting": "[3]; oral administration", "value": "up to 3 weeks"},
      {"measurement": "Plasma half-life", "setting": "[3]; single loading dose", "value": "120 to 264", "unit": "h"}
    ]},
    {"molecule": "SFLLRN", "values": [
      {"measurement": "EC50", "setting": "PAR1", "value": 2500, "unit": "nM"}
    ]}
  ]
}
